According to the supplement of paper PMC12076712:

Key:
Assay in all cases: pIC50, kinobeads binding competition
Conditions in all cases: cell material: Jurkat lysate
AKT1 = AKT1 (UniProt P31749)
EPHB6 = biological target: T1, EPHB6 (UniProt O15197)
T1 sequence (whole entry): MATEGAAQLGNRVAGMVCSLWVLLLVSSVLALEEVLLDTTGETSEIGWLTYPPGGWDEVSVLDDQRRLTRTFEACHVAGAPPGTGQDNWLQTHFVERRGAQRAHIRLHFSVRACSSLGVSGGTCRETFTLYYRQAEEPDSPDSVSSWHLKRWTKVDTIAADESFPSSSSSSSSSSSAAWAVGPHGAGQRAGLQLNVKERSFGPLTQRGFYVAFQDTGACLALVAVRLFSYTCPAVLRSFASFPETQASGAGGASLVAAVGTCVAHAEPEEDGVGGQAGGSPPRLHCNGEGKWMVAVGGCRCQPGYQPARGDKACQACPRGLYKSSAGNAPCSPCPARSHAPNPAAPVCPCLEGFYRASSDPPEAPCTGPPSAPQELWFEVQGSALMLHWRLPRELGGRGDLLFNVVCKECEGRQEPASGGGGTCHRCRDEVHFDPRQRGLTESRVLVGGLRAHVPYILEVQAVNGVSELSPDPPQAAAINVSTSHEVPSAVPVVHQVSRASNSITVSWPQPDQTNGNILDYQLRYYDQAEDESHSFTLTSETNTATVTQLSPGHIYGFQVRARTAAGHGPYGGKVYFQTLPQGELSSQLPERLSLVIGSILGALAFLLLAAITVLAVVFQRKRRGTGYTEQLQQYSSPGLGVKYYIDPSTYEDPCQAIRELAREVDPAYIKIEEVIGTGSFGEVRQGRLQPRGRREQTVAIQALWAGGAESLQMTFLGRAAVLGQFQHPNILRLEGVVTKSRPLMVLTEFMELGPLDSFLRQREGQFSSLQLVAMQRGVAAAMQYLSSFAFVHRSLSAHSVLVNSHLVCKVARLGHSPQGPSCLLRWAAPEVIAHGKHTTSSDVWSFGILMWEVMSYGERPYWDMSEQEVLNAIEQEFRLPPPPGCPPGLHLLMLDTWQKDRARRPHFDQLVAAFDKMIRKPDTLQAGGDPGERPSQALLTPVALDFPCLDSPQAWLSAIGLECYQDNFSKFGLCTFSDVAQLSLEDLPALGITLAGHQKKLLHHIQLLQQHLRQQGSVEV

GAK = biological target: T2, GAK (UniProt O14976)
T2 sequence (whole entry): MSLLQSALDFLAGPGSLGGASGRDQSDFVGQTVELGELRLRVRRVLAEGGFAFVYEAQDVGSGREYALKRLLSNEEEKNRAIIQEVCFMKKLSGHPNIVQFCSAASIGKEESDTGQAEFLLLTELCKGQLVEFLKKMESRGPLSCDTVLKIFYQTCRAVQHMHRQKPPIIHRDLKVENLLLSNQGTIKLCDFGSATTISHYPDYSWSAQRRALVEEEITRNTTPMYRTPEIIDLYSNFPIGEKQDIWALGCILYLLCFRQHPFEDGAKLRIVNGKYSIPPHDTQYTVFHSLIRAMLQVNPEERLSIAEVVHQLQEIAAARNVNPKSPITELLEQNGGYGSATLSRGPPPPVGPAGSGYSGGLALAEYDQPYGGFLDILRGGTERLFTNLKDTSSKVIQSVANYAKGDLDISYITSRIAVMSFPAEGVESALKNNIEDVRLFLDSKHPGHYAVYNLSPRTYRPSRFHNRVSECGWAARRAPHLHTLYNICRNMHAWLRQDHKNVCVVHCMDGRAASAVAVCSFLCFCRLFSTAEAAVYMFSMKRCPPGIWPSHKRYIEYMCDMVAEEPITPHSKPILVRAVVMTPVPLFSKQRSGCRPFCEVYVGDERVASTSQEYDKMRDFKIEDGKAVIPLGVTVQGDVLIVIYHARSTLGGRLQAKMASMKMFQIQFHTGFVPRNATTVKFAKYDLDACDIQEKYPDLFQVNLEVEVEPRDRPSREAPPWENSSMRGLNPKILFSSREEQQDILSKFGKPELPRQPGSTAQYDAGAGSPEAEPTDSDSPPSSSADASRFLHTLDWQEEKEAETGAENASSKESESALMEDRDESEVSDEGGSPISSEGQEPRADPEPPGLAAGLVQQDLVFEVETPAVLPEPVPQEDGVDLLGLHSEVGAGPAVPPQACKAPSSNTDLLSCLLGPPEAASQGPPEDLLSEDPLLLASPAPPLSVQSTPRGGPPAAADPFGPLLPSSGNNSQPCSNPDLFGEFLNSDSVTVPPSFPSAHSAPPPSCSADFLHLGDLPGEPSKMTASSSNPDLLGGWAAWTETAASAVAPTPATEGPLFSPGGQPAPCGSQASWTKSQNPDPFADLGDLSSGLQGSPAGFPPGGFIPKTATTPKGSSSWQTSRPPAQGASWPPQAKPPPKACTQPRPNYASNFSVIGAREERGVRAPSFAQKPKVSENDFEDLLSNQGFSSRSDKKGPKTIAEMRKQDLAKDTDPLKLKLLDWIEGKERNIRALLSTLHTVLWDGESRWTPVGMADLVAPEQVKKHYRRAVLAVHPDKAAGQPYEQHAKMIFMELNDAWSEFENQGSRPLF

JAK1 = JAK1 (UniProt P23458)
NEK3 = biological target: T3, NEK3 (UniProt P51956)
T3 sequence (whole entry): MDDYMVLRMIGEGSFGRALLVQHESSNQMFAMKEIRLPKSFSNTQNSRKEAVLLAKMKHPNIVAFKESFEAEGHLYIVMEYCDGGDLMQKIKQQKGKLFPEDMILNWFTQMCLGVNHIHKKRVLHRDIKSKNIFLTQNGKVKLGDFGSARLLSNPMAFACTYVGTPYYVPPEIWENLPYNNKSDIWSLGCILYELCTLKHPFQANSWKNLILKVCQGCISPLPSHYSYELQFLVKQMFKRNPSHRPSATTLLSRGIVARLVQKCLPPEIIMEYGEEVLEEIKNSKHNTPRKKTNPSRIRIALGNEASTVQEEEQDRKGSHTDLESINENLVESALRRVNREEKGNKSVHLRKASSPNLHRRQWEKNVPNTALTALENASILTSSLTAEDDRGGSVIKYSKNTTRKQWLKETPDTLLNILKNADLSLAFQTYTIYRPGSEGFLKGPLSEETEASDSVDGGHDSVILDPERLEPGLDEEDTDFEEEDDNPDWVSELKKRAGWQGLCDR

PDIK1L = PDIK1L (UniProt Q8N165)
TESK2 = TESK2 (UniProt Q96S53)
UniProt P80192 = biological target: UniProt P80192

Measured: pIC50

JAK1, sequence (P23458 whole entry): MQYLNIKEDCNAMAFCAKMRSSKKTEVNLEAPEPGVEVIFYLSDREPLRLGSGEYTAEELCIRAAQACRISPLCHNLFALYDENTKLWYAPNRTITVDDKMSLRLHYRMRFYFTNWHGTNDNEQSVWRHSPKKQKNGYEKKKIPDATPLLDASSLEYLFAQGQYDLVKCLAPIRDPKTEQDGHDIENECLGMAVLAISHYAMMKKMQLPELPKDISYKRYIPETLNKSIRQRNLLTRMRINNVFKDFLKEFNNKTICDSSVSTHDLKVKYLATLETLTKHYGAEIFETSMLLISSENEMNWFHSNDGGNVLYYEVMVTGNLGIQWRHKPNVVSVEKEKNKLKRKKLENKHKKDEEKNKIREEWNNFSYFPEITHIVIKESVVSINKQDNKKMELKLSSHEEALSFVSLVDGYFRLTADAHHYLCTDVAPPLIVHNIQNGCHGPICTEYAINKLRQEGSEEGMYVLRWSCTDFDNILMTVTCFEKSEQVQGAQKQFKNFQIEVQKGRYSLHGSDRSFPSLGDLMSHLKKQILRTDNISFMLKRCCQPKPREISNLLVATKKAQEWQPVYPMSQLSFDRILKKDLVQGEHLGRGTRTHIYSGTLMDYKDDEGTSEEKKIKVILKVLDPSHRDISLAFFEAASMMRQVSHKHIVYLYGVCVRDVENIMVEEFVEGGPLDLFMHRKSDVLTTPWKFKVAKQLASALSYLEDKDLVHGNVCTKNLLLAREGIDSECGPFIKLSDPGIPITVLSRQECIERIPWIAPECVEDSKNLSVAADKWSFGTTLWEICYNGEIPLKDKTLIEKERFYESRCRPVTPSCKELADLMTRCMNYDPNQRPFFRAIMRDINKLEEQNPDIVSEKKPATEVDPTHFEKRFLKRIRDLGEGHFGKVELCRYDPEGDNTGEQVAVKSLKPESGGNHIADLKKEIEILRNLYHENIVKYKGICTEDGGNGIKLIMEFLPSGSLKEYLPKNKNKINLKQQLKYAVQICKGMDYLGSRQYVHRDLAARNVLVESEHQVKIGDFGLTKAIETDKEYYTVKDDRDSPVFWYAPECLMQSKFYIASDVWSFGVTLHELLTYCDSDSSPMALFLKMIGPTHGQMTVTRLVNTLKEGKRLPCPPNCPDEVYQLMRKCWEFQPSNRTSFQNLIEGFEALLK
AKT1, sequence (P31749 whole entry): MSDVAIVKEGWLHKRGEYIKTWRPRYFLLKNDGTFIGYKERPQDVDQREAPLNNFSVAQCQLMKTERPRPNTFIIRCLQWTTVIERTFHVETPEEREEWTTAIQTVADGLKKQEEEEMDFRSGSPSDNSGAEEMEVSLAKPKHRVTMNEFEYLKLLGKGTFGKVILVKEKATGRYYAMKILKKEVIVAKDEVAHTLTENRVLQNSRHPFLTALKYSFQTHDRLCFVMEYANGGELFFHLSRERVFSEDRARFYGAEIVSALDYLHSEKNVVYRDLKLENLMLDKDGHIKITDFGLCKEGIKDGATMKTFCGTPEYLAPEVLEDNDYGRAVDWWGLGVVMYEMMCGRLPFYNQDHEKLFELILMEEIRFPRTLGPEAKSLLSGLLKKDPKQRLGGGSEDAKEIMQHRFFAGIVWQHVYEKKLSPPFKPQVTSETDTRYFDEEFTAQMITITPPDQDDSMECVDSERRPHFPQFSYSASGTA
TESK2, sequence (Q96S53 whole entry, looked up): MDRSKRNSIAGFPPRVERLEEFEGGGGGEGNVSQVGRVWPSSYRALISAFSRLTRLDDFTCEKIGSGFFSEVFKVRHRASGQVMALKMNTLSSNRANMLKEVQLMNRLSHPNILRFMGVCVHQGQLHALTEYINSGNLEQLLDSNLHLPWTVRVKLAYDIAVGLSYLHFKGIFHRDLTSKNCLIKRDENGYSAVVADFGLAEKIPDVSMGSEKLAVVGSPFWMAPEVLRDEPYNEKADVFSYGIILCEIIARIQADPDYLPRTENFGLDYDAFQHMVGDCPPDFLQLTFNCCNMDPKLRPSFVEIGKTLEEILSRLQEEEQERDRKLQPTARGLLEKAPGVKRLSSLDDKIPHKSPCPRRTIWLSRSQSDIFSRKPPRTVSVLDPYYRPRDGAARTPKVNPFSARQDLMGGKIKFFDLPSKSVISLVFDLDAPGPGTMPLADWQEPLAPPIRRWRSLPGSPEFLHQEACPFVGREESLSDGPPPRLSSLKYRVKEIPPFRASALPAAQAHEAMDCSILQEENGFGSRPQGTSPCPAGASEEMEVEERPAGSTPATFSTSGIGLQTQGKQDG
UniProt P80192, sequence (P80192 whole entry, looked up): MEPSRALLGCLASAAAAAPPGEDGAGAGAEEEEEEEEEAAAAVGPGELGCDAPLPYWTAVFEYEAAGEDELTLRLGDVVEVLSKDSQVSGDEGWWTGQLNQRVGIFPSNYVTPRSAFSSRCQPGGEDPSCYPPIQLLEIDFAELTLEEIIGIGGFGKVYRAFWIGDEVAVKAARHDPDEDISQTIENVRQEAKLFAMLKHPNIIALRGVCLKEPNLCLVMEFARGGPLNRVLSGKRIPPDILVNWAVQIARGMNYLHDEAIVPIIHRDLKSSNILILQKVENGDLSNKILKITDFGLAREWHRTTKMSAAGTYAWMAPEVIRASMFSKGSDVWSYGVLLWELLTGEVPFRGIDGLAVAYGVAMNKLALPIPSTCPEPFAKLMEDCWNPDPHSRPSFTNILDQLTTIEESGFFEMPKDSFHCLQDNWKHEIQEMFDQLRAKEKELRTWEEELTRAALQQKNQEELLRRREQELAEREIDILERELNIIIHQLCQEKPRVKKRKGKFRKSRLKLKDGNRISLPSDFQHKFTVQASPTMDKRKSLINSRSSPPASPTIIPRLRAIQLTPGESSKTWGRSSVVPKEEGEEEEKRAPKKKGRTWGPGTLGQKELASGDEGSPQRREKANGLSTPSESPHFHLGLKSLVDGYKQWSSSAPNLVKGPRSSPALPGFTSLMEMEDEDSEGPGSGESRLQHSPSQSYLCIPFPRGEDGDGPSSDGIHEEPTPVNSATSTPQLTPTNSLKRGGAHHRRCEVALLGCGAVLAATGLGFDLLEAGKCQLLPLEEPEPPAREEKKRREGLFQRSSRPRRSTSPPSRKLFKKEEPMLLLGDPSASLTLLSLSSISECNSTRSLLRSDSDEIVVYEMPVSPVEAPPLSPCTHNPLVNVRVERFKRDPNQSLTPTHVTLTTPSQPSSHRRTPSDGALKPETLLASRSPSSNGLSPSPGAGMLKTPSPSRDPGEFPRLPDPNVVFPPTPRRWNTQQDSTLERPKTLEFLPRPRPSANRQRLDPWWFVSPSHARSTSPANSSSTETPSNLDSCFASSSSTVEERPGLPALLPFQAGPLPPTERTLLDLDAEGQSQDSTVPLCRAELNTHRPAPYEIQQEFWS
PDIK1L, sequence (Q8N165 whole entry): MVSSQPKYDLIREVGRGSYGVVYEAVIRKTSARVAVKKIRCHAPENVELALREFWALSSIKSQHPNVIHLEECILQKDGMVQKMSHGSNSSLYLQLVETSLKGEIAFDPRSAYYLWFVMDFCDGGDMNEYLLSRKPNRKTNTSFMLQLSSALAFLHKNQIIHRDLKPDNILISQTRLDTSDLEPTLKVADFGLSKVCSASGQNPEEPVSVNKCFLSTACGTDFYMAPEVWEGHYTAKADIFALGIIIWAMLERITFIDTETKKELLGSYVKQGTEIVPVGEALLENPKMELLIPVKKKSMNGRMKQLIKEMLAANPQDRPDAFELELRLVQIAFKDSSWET

CCc1cnn2c(NCc3ccc[n+]([O-])c3)cc(N3CCCC[C@H]3CCO)nc12 [dinaciclib]
< 4.52: all assays above
